Results reported in ChEMBL document CHEMBL3585344, “Thiazole-based aminopyrimidines and N-phenylpyrazolines as potent antimicrobial agents: synthesis and biological evaluation” (2014).
≈ marks a conversion by molar mass, not a printed value.

Tests used:
[1] = system: Salmonella typhimurium; assay: Bactericidal activity against Salmonella typhimurium ATCC 13311 after 72 hrs by microdilution method; assay type: functional, Salmonella enterica subsp. enterica serovar Typhimurium
[2] = system: Listeria monocytogenes; assay: Antibacterial activity against Listeria monocytogenes NCTC 7973 after 24 hrs by microdilution method; assay type: functional; settings: NCTC 7973, 24 h
[3] = system: Trichoderma viride; assay: Antifungal activity against Trichoderma viride IAM 5061 after 72 hrs by microdilution method; assay type: functional; settings: IAM 5061, 72 h
[4] = system: Aspergillus versicolor; assay: Fungicidal activity against Aspergillus versicolor ATCC 11730 after 72 hrs by microdilution method; assay type: functional
[5] = system: Pseudomonas aeruginosa; assay: Bactericidal activity against Pseudomonas aeruginosa ATCC 27853 after 72 hrs by microdilution method; assay type: functional
[6] = system: Candida albicans; assay: Fungicidal activity against Candida albicans ATCC 10231 isolated from human after 72 hrs by microdilution method; assay type: functional
[7] = system: Pseudomonas aeruginosa; assay: Antibacterial activity against Pseudomonas aeruginosa ATCC 27853 after 24 hrs by microdilution method; assay type: functional; settings: ATCC 27853, 24 h
[8] = system: Bacillus cereus; assay: Antibacterial activity against Bacillus cereus clinical isolate after 24 hrs by microdilution method; assay type: functional
[9] = system: Enterobacter cloacae; assay: Antibacterial activity against Enterobacter cloacae ATCC 35030 isolated from human after 24 hrs by microdilution method; assay type: functional; settings: ATCC 35030, 24 h
[10] = system: Escherichia coli; assay: Antibacterial activity against Escherichia coli ATCC 35210 after 24 hrs by microdilution method; assay type: functional; settings: ATCC 35210, 24 h
[11] = system: Listeria monocytogenes; assay: Bactericidal activity against Listeria monocytogenes NCTC 7973 after 72 hrs by microdilution method; assay type: functional
[12] = system: Penicillium ochrochloron; assay: Antifungal activity against Penicillium ochrochloron ATCC 9112 after 72 hrs by microdilution method; assay type: functional; settings: ATCC 9112, 72 h
[13] = system: Aspergillus ochraceus; assay: Fungicidal activity against Aspergillus ochraceus ATCC 12066 after 72 hrs by microdilution method; assay type: functional
[14] = system: Enterobacter cloacae; assay: Bactericidal activity against Enterobacter cloacae ATCC 35030 isolated from human after 72 hrs by microdilution method; assay type: functional
[15] = system: Aspergillus niger; assay: Antifungal activity against Aspergillus niger ATCC 6275 after 72 hrs by microdilution method; assay type: functional; settings: ATCC 6275, 72 h
[16] = system: Candida albicans; assay: Antifungal activity against Candida albicans ATCC 10231 isolated from human after 72 hrs by microdilution method; assay type: functional; settings: ATCC 10231, 72 h
[17] = system: Trichoderma viride; assay: Fungicidal activity against Trichoderma viride IAM 5061 after 72 hrs by microdilution method; assay type: functional
[18] = system: Staphylococcus aureus; assay: Antibacterial activity against Staphylococcus aureus ATCC 6538 after 24 hrs by microdilution method; assay type: functional; settings: ATCC 6538, 24 h
[19] = system: Talaromyces funiculosus; assay: Antifungal activity against Penicillium funiculosum ATCC 36839 after 72 hrs by microdilution method; assay type: functional; settings: ATCC 36839, 72 h
[20] = system: Micrococcus flavus; assay: Bactericidal activity against Micrococcus flavus ATCC 10240 after 72 hrs by microdilution method; assay type: functional
[21] = system: Aspergillus fumigatus; assay: Antifungal activity against Aspergillus fumigatus isolated from human after 72 hrs by microdilution method; assay type: functional
[22] = system: Talaromyces funiculosus; assay: Fungicidal activity against Penicillium funiculosum ATCC 36839 after 72 hrs by microdilution method; assay type: functional
[23] = system: Escherichia coli; assay: Bactericidal activity against Escherichia coli ATCC 35210 after 72 hrs by microdilution method; assay type: functional
[24] = system: Aspergillus niger; assay: Fungicidal activity against Aspergillus niger ATCC 6275 after 72 hrs by microdilution method; assay type: functional
[25] = system: Salmonella typhimurium; assay: Antibacterial activity against Salmonella typhimurium ATCC 13311 after 24 hrs by microdilution method; assay type: functional, Salmonella enterica subsp. enterica serovar Typhimurium; settings: Salmonella enterica, ATCC 13311, 24 h
[26] = system: Staphylococcus aureus; assay: Bactericidal activity against Staphylococcus aureus ATCC 6538 after 72 hrs by microdilution method; assay type: functional
[27] = system: Aspergillus versicolor; assay: Antifungal activity against Aspergillus versicolor ATCC 11730 after 72 hrs by microdilution method; assay type: functional; settings: ATCC 11730, 72 h
[28] = system: Aspergillus fumigatus; assay: Fungicidal activity against Aspergillus fumigatus isolated from human after 72 hrs by microdilution method; assay type: functional
[29] = system: Bacillus cereus; assay: Bactericidal activity against Bacillus cereus clinical isolate after 72 hrs by microdilution method; assay type: functional
[30] = system: Micrococcus flavus; assay: Antibacterial activity against Micrococcus flavus ATCC 10240 after 24 hrs by microdilution method; assay type: functional; settings: ATCC 10240, 24 h
[31] = system: Penicillium ochrochloron; assay: Fungicidal activity against Penicillium ochrochloron ATCC 9112 after 72 hrs by microdilution method; assay type: functional
[32] = system: Aspergillus ochraceus; assay: Antifungal activity against Aspergillus ochraceus ATCC 12066 after 72 hrs by microdilution method; assay type: functional; settings: ATCC 12066, 72 h

Row | SMILES | MBC99.5 [1] | MIC [2] | MIC [3] | MFC99.5 [4] | MBC99.5 [5] | MFC99.5 [6] | MIC [7] | MIC [8] | MIC [9] | MIC [10] | MBC99.5 [11] | MIC [12] | MFC99.5 [13] | MBC99.5 [14] | MIC [15] | MIC [16] | MFC99.5 [17] | MIC [18] | MIC [19] | MBC99.5 [20] | further results
1 | CNc1nc(C)c(C2=NN(c3ccccc3)C(c3ccccc3)C2)s1 (centres undefined) | 28.7 ×10⁻² umol/ml | 57 µM (≈ 19.9 µg/mL) | 287 µM (≈ 100 µg/mL) | 23 ×10⁻² umol/ml | 45.9 ×10⁻² umol/ml | 23 ×10⁻² umol/ml | 144 µM (≈ 50.2 µg/mL) | 230 µM (≈ 80.1 µg/mL) | 144 µM (≈ 50.2 µg/mL) | 172 µM (≈ 59.9 µg/mL) | 11.5 ×10⁻² umol/ml | 143 µM (≈ 49.8 µg/mL) | 17.2 ×10⁻² umol/ml | 20.1 ×10⁻² umol/ml | 143 µM (≈ 49.8 µg/mL) | 172 µM (≈ 59.9 µg/mL) | 40.2 ×10⁻² umol/ml | 115 µM (≈ 40.1 µg/mL) | 287 µM (≈ 100 µg/mL) | 23 ×10⁻² umol/ml | MIC [21]: 143 µM (≈ 49.8 µg/mL); MFC99.5 [22]: 40.2 ×10⁻² umol/ml; MBC99.5 [23]: 20.1 ×10⁻² umol/ml; MFC99.5 [24]: 28.7 ×10⁻² umol/ml; MIC [25]: 172 µM (≈ 59.9 µg/mL); MBC99.5 [26]: 20.1 ×10⁻² umol/ml; MIC [27]: 143 µM (≈ 49.8 µg/mL); MFC99.5 [28]: 23 ×10⁻² umol/ml; MBC99.5 [29]: 28.7 ×10⁻² umol/ml; MIC [30]: 115 µM (≈ 40.1 µg/mL); MFC99.5 [31]: 28.7 ×10⁻² umol/ml; MIC [32]: 143 µM (≈ 49.8 µg/mL)
2 | Cc1nc(-c2ccccc2)sc1C1=NN(c2ccccc2)C(c2ccccc2)C1 (centres undefined) | 25.3 ×10⁻² umol/ml | 76 µM (≈ 30.1 µg/mL) | 126 µM (≈ 49.8 µg/mL) | 15.2 ×10⁻² umol/ml | 25.3 ×10⁻² umol/ml | 30.4 ×10⁻² umol/ml | 152 µM (≈ 60.1 µg/mL) | 152 µM (≈ 60.1 µg/mL) | 126 µM (≈ 49.8 µg/mL) | 101 µM (≈ 39.9 µg/mL) | 10.1 ×10⁻² umol/ml | 253 µM (≈ 100 µg/mL) | 20.2 ×10⁻² umol/ml | 17.7 ×10⁻² umol/ml | 253 µM (≈ 100 µg/mL) | 253 µM (≈ 100 µg/mL) | 25.3 ×10⁻² umol/ml | 126 µM (≈ 49.8 µg/mL) | 253 µM (≈ 100 µg/mL) | 20.2 ×10⁻² umol/ml | MIC [21]: 126 µM (≈ 49.8 µg/mL); MFC99.5 [22]: 32.2 ×10⁻² umol/ml; MBC99.5 [23]: 17.7 ×10⁻² umol/ml; MFC99.5 [24]: 32.2 ×10⁻² umol/ml; MIC [25]: 202 µM (≈ 79.9 µg/mL); MBC99.5 [26]: 20.2 ×10⁻² umol/ml; MIC [27]: 126 µM (≈ 49.8 µg/mL); MFC99.5 [28]: 15.2 ×10⁻² umol/ml; MBC99.5 [29]: 30.4 ×10⁻² umol/ml; MIC [30]: 126 µM (≈ 49.8 µg/mL); MFC99.5 [31]: 32.2 ×10⁻² umol/ml; MIC [32]: 126 µM (≈ 49.8 µg/mL)
